Row | melting point [°C] | SMILES
1 | 165 to 167 | O=C(O)C(Cc1ccccc1)Oc1ccc(-c2ccc(-c3c(Cc4ccccc4)sc4ccccc34)cc2)cc1 (centres undefined)
2 | 146 to 148 | N#CC(Oc1nsnc(Cl)c1=O)c1cccc(Oc2ccccc2)c1 (centres undefined)
3 | 145 to 146 | Cc1nnc(-c2ccc3occ(-c4cccc(Cl)c4)c3c2)o1
4 | 58 to 59 | O=C(O)C(=O)c1ccc(OCCOCCOc2ccccc2)cc1
5 | 84 to 85 | CCNc1nc(C=O)cs1
6 | 256 to 258 | CC12CCC3c4ccc(O)cc4CCC3C1CC=C2c1cccnc1 (centres undefined)
7 | 110 to 111 | Cn1c(=O)c2c(ncn2CC(O)Cc2noc(CCN3CCCCC3)n2)n(C)c1=O (centres undefined)
8 | 132 to 134 | COc1ccc(CCC(=O)c2cccc(O)c2)cc1OC
9 | 296 to 301 | NS(=O)(=O)c1cc2[nH]c(CCl)nc2cc1Cl
10 | 214 to 216 | O=C(c1ccc(F)cc1)c1cnn2c(-c3ccncc3)ccnc12
11 | > 250 | Cn1c(=O)c(C(=O)O)c(-c2ccccc2Cl)c2ccncc21
12 | 152 to 154 | O=[N+]([O-])C=C1NCCCCN1
13 | 71 to 73 | CC(C)c1ccc(NCc2ccc(N(C)C)cc2)cc1
14 | 181 to 182 | O=C(O)c1cccc(-n2nnnc2S)c1
15 | 80.5 to 94.5 | O=C1CC2OC(CS(=O)Cc3ccccc3)CN12 (racemic)
16 | 155 to 157 | COc1ccc(COc2cncc3c2C(=O)c2c(F)ccc(Cl)c2C3=O)cc1
17 | 137 | Clc1ccc(NN=Cc2cccs2)cc1
18 | 133 | C#CCN(c1ccc(C(=O)O)cc1)C1CCc2cc3nc(COC(=O)C(C)(C)C)[nH]c(=O)c3cc21 (racemic)
19 | 153 to 154 | FC(F)(F)c1ccc(CN2CCNc3ncc(I)cc32)o1
20 | 237 to 240 | COc1cc2nc(N3CCN(C(=O)C45CC6CC(CC(C6)C4)C5)CC3)nc(N)c2cc1OC
21 | 222 to 223 | CN(c1cccc2c(Cl)c(-c3nccs3)[nH]c12)S(=O)(=O)c1cccs1
22 | 143 to 146 | COc1ccc(C2=NNC(=O)[C@H]3CCCC[C@@H]23)cc1OC (relative stereo)
23 | 29 | CCCCCCCCC(=O)N(C)O

Row | melting point [°C] | SMILES
24 | 165 to 168 | CCCn1c(=O)c(C(=O)OCC)c(N)c2cccnc21
25 | 115 to 119 | CCCCCCCCN(C[C@H]1CCC[C@H](CN(CCCCCCCC)C(=O)Nc2ccc(N(C)C)cc2)C1)C(=O)Nc1ccc(N(C)C)cc1 (relative stereo)
26 | 160 | CC(C)(C)NCC(O)COc1ccccc1C(=O)Nc1cccc2c1CC(=O)N2 (centres undefined)
27 | 102 to 104 | N#CCC(=O)NCc1ccccc1Cl
28 | 216 to 219 | C#Cc1ccc2c(c1)C(=O)N(C(C)(C)C)CC(=O)N2
29 | 224 | FC(F)(F)c1cc(-c2ccc(Cl)c(Cl)c2)nc2c(-c3cccnc3)cnn12
30 | 132 to 134 | CCC1(CC)Nc2ccccc2-c2c([N+](=O)[O-])cnn21
31 | 165 to 166 | Cc1cc(C)cc(C(=O)/C=C/c2nc[nH]c2C)c1
32 | 150 to 154 | Cc1noc(C)c1S(=O)(=O)n1c(CCCC(=O)O)cc2cc(Cl)ccc21
33 | 112 to 114 | CCCC1OC(C(=O)OC)CC2=C1C(=O)c1ccccc1C2=O (centres undefined)
34 | 104 to 105 | CCOc1cc(Cn2cc(CCC(=O)O)c(-c3ccccc3)c2)cc(OCc2csc(-c3cccs3)n2)c1
35 | 84 to 84.5 | COc1cc(OC)cc(-c2ncn(-c3ccc(C(F)(F)F)cc3)c2-c2ccc(N(C)C)cc2)c1
36 | 234 to 235 | NC(=O)C1CCCN1c1nc(-c2ccccc2)nc2[nH]c(CN3CCC(O)(c4ccccc4)CC3)cc12 (centres undefined)
37 | 213 to 214 | Cc1c(-c2ccc(C(C)(C)C)cc2)[nH]c2nccnc12
38 | > 230 | Cc1c(=O)[nH]c(=O)n2ccsc12
39 | 112 to 116 | Clc1ccc(Nc2ccc(Br)cn2)cc1
40 | 104 to 106 | CN1CCN(c2ccccc2C=C2CCN(c3ccccc3)C2=O)CC1
41 | 116 to 118 | CS(=O)(=O)c1ccc(-c2cc(CO)nn2C2CCCCCC2)cc1
42 | 214 to 215 | CN(C)S(=O)(=O)c1cc(C(=O)O)cc(N2CCCC2)c1Oc1ccccc1
43 | 127 to 129 | COc1ccc(-c2sc3cc(OC)ccc3c2C(=O)c2ccc(Br)cc2)cc1
44 | 130 to 131 | OC1(c2cccn2Cc2ccccc2F)CCN(CCc2ccccc2)CC1
45 | 128 | O=S(=O)(N=Cc1ccc(Cl)cc1)c1ccc(Cl)cc1
46 | 119 to 121 | CCCC1=C(C(=O)OCC)C(c2ccccc2Cl)c2cn(C(=O)c3ccccc3)nc2N1 (centres undefined)

Row | melting point [°C] | SMILES
47 | 70 | CCCCCCCCCCCCCC(=O)c1c(O)c(C)c(C)c(O)c1CCC
48 | 154 to 157 | CC(C)(C)OC(=O)CCc1ccc(O)cc1CN
49 | 71.1 | C#CCOc1cc(Oc2ccccc2)ncn1
50 | 130 to 132 | Cc1ccc(CCC(=O)c2ccc(N3CCN(c4ccncc4)CC3)cc2)cc1
51 | 97 to 98 | O=C(O)CCCCCOc1cccc(CCCCCCOc2ccc3c(c2CCCc2ccccc2)OCCC3=O)c1CCC(=O)O
52 | 77 to 79 | Cc1cnc2c(c1)nc(C)n2-c1ccccc1
53 | 152 to 154 | COc1cc(OC)c(C23CC4CC(CC(C4)C2)C3)cc1C#Cc1ccc(C(=O)O)cc1
54 | 95 to 104 | CN(C)Cc1ccccc1-c1ccc(C(=O)N2Cc3ccc(C(=O)NCc4cccnc4)n3Cc3ccccc32)cc1
55 | 152 | C[C@H]1C[C@@H](Oc2cccc(NC(=O)c3ccc(F)cc3Cl)c2)CCN1C (relative stereo)
56 | 207 to 209 | O=[N+]([O-])c1cc([N+](=O)[O-])c(Nc2c(Br)cc(Cl)c3ccccc23)c(C(F)(F)F)c1
57 | 121 to 123 | CCOC(=O)CC(=O)c1cc(F)c(N2CCNCC2)nc1Nc1ccc(F)cc1F
58 | 220 | N#CNC(=NCCc1ccccc1Cl)c1cncc(NC(=O)c2ccccc2)c1
59 | 189 to 190 | Cc1oc2c(NC(=O)c3c(Cl)cccc3Cl)cccc2c1CC1CCCCC1
60 | 147 to 149 | NC1(C(=O)c2ccccc2)CCSC1 (centres undefined)
61 | 173 to 174 | Cc1noc(-c2ccccc2)c1/C=C/C(=O)O
62 | 128 to 129 | CC(C)(C)c1ccc(CC[C@H](O)CCCC2CCCCC2)cc1NC(=O)CC1c2ccccc2Oc2ccccc21
63 | 260 to 262 | CCc1cc2c(c(Sc3ccccc3)cc(=O)n2Cc2ccc(C(=O)O)cc2)c(CC)n1
64 | 70 to 71 | CCCCCCCCCCCCCCOc1ccc(C(=O)N(CC(=O)OC)CC(=O)OC)cc1OCCCCCCCCCCCCCC
65 | 193 | Cn1c(=O)c([N+](=O)[O-])c(O)c2ccccc21
66 | 124 | O=C1c2ccccc2C(=O)N1CC1CN(Cc2ccccc2)CCN1Cc1ccccc1 (centres undefined)
67 | 132 to 133 | CCCc1c(C#N)c2ccc(C(=O)OC)cc2n1Cc1ccccc1Cl
68 | 98 to 99 | COC(=O)c1cccc2c(I)c(OC)ccc12
69 | 157 to 159 | COc1ccc(C(C#Cc2ccccc2)CN(C)C(=O)C(=O)O)cc1OC1CCCC1 (racemic)

Row | melting point [°C] | SMILES
70 | 205 to 207 | COc1ccc(C2C3=C(COC3=O)Nc3ccc4cc(C)[nH]c4c32)c(F)c1 (centres undefined)
71 | 130 to 132 | O=C(N1CCC(n2ccc3ccccc32)CC1)C(F)(F)F
72 | 257 to 259 | O=c1ncn(Cc2ccc(Cl)cc2)c2cc(-c3ccc(OCc4ccccn4)cc3)sc12
73 | 165 | Cc1ccc(-c2nc(C)c(C)c(Cl)n2)cc1
74 | 157 to 167 | COc1ccc(N2CCOCC2)c2sc(NC(=O)N(C)C3CCC(C(F)(F)F)CC3)nc12 (centres undefined)
75 | 189 to 192 | CCOc1ccccc1C=C1CCc2c1oc1ccc(C(=O)OC)cc1c2=O
76 | 195 | O=C(Nc1cccc2c1C(=O)OC2=O)c1ccc(Cl)s1
77 | 80 | O=S(=O)(NC(CO)CO)c1ccc(Br)s1
78 | 104 to 106 | O=S(=O)(CCCl)CCC(F)(F)C(F)(F)C(F)(F)C(F)(F)C(F)(F)C(F)(F)F
79 | 194 to 196 | Cc1ccc(S(=O)(=O)OCCc2cc3c4ccccc4[nH]c(=O)n3n2)cc1
80 | 300 | Nc1ccc(C=C2NC(=O)NC2=O)cc1
81 | 93 to 95 | CCC(OC)(c1cncc(OCc2ccc3ccccc3c2)c1)c1nccs1 (centres undefined)
82 | 76 to 78 | CCOC(OCC)C1Cc2c(Br)ccc(OC)c2C1=O (centres undefined)
83 | 270 | Cc1cc(-c2cc(C(F)F)n3ncc(C(=O)Nc4cccc(S(C)(=O)=O)c4)c3n2)ccc1Cl
84 | 113 to 115 | CCN1c2ncccc2C(=O)N(C)c2ccc(-c3c[nH]nc3C)nc21
85 | 150 | CSc1ccc(CN(C)CCOc2ccc(NC(=O)c3cccc4c(=O)c5ccccc5[nH]c34)cc2)cc1
86 | 192 to 193 | CCn1cnc2cc(C(F)(F)F)c(Cl)c(N)c21
87 | 188 to 190 | CCOCC1OC(n2cc(C(F)(F)F)c(=O)[nH]c2=O)CC1O (centres undefined)
88 | 177 to 181 | CS(=O)(=O)N[C@@H]1CCCC[C@H]1Nc1nc(Nc2cc(F)cc3c2OCCNC3=O)ncc1Cl
89 | 138 to 139 | CC(=NOCCOc1ccc(CC2SC(=O)NC2=O)cc1)c1ccc2ccccc2c1 (centres undefined)
90 | 212 to 215 | CC1(C)CC(=O)C(C(=O)Nc2ccc(Cl)c(Cl)c2)C(=O)O1 (centres undefined)

Row | SMILES | melting point [°C]
91 | CC(=O)NN=C1CC2(CCN(C)CC2)OC1C (centres undefined) | 164 to 167
92 | C1=C(c2ccccc2)CCN(Cc2c[nH]c3ncccc23)C1 | 177 to 179
93 | CC1(C)CCC(C)(C)c2cc(-c3cc(-c4ccc(CN)cc4)on3)ccc21 | 138 to 143
94 | Cc1nc2ccc3c(c2o1)OC(CN1C2CCC1CC(O)(c1ccccc1)C2)CO3 (centres undefined) | 203 to 205
95 | Cc1cccc2c1N(CC(=O)N1CC3CCC(CC3)C1)C(=O)C(NC(=O)Nc1cccc(Cc3nnn[nH]3)c1)N=C2c1ccccc1F (centres undefined) | 154 to 168
96 | Nc1cc(C2=NOC(c3cc(Cl)cc(Cl)c3)(C(F)(F)F)C2)ccc1-n1cncn1 (centres undefined) | 244 to 246
97 | CN1C(=O)[C@H](N)N=C(C2CCCCC2)c2ccccc21 | 130 to 133
98 | CCOC(=O)N1CC1C(N)=O (centres undefined) | 125 to 128
99 | CN1C(=O)C(C(=O)c2ccc(Cl)cc2Cl)C(=O)N(C)C1=O | 123 to 127

Reference: a melting point compilation (Tetko et al.; mined from patent text by program, amines drawn as free bases though some values may be those of a salt)
